# Entries after “also recorded” stand apart in the source; their conditions may differ.
# Key:
# pupil diameter = experiment: Pupillometry during VRH testing; type: in vivo, human; conditions: time after dosing
# [1] = Treatment-emergent adverse events
# [2] = Pharmacokinetic assessment - abuse quotient (plasma Cmax, Tmax, AUC0-last, AQ); conditions: for AUC(0-t) / Cmax / Tmax: both, human, plasma, oral
# respiratory drive = experiment: Ventilatory response to hypercapnia (VRH) test of respiratory drive, phase I placebo-controlled crossover trial
structure (smiles),measurement,setting,value
"COc1ccc2c3c1O[C@H]1C(=O)CC[C@@]4(O)[C@@H](C2)N(C)CC[C@]314.Cl [IR Oxycodone, oxycodone hydrochloride]",initial onset of statistically significant miosis (relative to placebo),pupil diameter; oxycodone 30 mg,0.5 h
same,initial onset of statistically significant miosis (relative to placebo),pupil diameter; oxycodone 60 mg,0.5 h
same,treatment-emergent adverse events,[1]; all doses,produced some adverse events
same,treatment-emergent adverse events,[1]; oxycodone 60 mg,highest percentage of adverse events in all categories
same,Cmax dependence on dose,"[2]; BBF 300-900 μg, IR oxycodone 30, 60 mg",increased proportionally with dose
same,AUC(0-t),[2]; 30 mg,216 ng·h/mL
same,Cmax,[2]; 30 mg,65.8 ng/mL
same,Tmax,[2]; 30 mg,1.2 h
same,AUC(0-t),[2]; 60 mg,435 ng·h/mL
same,Cmax,[2]; 60 mg,132 ng/mL
same,Tmax,[2]; 60 mg,1.2 h
same,effect on respiratory drive (Emax) relative to placebo,"respiratory drive; across all doses tested (BBF 300-900 μg; oxycodone 30, 60 mg), hydrochloride",dose-dependent decrease in respiratory drive; also recorded: decreased respiratory drive in a dose-dependent fashion
same,least square mean difference in Emax (maximum minute ventilation) versus placebo,"respiratory drive; oral oxycodone 30 mg, P=0.668",−828.5
same,least square mean difference in Emax (maximum minute ventilation) versus placebo,"respiratory drive; oral oxycodone 60 mg, P=0.008",−5188.6
same,minute ventilation relative to placebo,respiratory drive; oxycodone 30 mg,significant (P<0.05) decrease at one hour post-dose
same,Peak Expiratory Flow Rate (PEFR) relative to placebo,"respiratory drive; oxycodone 30 mg, 1 hour post-dose",significant (P<0.05) decrease in PEFR at 1 hour post-dose
same,minute ventilation relative to placebo,respiratory drive; oxycodone 60 mg,"significant (P<0.05) decreases at 1 hour, 2 hour, and 4 hours post-dose"
same,Peak Expiratory Flow Rate (PEFR) relative to placebo,"respiratory drive; oxycodone 60 mg, 30 minutes post-dose",significant (P<0.05) decrease at 30 minutes
same,Peak Expiratory Flow Rate (PEFR) relative to placebo,"respiratory drive; oxycodone 60 mg, 1 hour post-dose",significant (P<0.05) decrease in PEFR at 1 hour post-dose
same,"oxygen saturation level, one subject (adverse event)","respiratory drive; oxycodone 60 mg, approximately 1.5 hours after dosing",86%

# From patent publication US20210251983A1, “METHODS OF TREATMENT WITH BUPRENORPHINE” (BioDelivery Sciences International, Inc., priority 2020, published 2021)
